Measurements published in PMC9743467 (Matter, 2022).

Columns and labels:
[1] = test system: SARS-CoV-2 (USA-WA1/2020); type: in vivo, K18-hACE2 mice infected with SARS-CoV-2; details: n = 8
[2] = test system: VSV-G PsV; type: cell-based, vesicular stomatitis virus
[3] = test system: SARS-CoV-2 PsV; type: cell-based
[4] = type: in vivo, K18-hACE2 mice; details: n = 8
[5] = source not given; cited from earlier work
[6] = test system: SARS-CoV PsV; type: cell-based
[7] = test system: SARS-CoV-2 PsV; type: cell-based; remark: listed apart in the source

ACE2: recombinant human angiotensin-converting enzyme 2, soluble, R&D Systems
viral load in SARS-CoV-2-infected lungs [1]: negligible effect on viral load
inhibition of VSV-G PsV infection [2]: This trend is not observed
time at which inhibition equals that of empty filaments [3]: ≤ 6 h
body weight loss [4]: similar
pI [5]: ≈ 5.36
inhibition of SARS-CoV PsV infection [6]: strongly inhibited
inhibition of SARS-CoV-2 PsV infection [7]: strongly inhibited
